The record followed here is patent publication US20230391742A1, “SMALL MOLECULE COMPOUND AND USE AND COMPOSITION THEREOF” (SOOCHOW UNIVERSITY, priority 2021, published 2023).

SMILES strings stand for the structures.

The test system of test [1] is SKOV3 cells. Put plainly: MTT cell growth assay in SKOV3 cells. Format: cell-based, human. How it is done:
(§1) SKOV3 cell line: purchased from ATCC, an ovarian cancer tumor cell line that positively expresses NAC1.
(§2) The culture method of SKOV3 cell line was as follows: the cells were inoculated in DMEM (InVitrogen) medium containing 10% calf serum, and placed in a CO2 incubator with a volume fraction of 5% at 37° C., cultivated for two weeks.
This embodiment used a conventional MTT method. The specific method included following:
SKOV3 cells were plated overnight in 96-well plates at a density of 3000 cells/well. […] After 48 hours, 10 μl of MTT (5 mg/ml) was added to each well, and the supernatant was discarded after incubation at 37° C. for 4 hours. After dissolving the purple crystal with 150 μl of dimethyl sulfoxide, the plates were placed in a microplate reader (Bio-Rad Company) to detect the absorbance at 570 nm.

The test system of test [2] is SKOV3 cells. As to the kind of experiment: Immunoblot of cleaved PARP (apoptosis) in SKOV3 cells. Format: cell-based, human. How it is done:
The ovarian cancer cell line SKOV3 cells were plated into 24-well plates at a density of 20,000 cells/well, and after 16-24 hours of incubation, NAI-008 was added to a final concentration of 20 μM. After 4 hours, additional cisplatin or doxorubicin was added to a final concentration of 20 μM. After 48 hours, the expression of PARP cleaved by apoptotic protein was detected by immunoblotting.
Background: Immunoblotting shows a protein as a band on a membrane.

For test [3], the system named is SKOV3 cells. Put plainly: Clonal colony formation experiment in SKOV3 cells. Format: cell-based, human. As to conditions: NAI-008 20 μM combined with cisplatin or doxorubicin (0-40 μM), SKOV3, FIG. 2B. How it is done:
as §1, §2
In this example, conventional clonal colony formation experiments were used. The specific method included the following:
SKOV3 cells were treated according to the experimental requirements for 24-48 hours, digested with trypsin, and the cell suspension was repeatedly pipetted to make the cells fully dispersed. The percentage of single cells were above 95%, and counted on a hemocytometer. Based on a concentration of 2000 cells per dish, 2 ml of cell suspension was inoculated into the culture dish, so that the cells were evenly dispersed. Culturing in 37° C., 5% CO2 for 7 to 14 days, with fresh medium from time to time. Observation under an inverted microscope. When macroscopic colonies appeared in the petri dish, the culture was terminated, the medium was discarded, and PBS was used to rinse twice. Crystal violet staining for 20 minutes. The results were analyzed after 2-3 washes with PBS.

A further test has as its target T1, NAC1 protein dimer (Homo sapiens, UniProt Q96RE7).
T1 sequence (Q96RE7 1-527): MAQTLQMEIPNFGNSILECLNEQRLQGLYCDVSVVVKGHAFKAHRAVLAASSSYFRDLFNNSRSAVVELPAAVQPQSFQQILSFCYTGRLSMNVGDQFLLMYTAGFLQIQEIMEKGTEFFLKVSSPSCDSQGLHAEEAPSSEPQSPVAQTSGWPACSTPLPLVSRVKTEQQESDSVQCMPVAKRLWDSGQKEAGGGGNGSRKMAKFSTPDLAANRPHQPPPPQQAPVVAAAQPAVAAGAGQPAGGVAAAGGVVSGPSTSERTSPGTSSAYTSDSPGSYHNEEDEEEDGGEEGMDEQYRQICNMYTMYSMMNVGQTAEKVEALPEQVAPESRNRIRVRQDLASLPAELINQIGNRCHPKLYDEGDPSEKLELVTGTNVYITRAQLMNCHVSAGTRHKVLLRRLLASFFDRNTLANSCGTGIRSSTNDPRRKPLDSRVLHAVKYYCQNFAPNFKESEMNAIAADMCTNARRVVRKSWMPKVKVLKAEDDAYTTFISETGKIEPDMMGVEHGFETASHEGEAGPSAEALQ
Put plainly: Dimer formation of NAC1 protein detected by immunoprecipitation and immunoblotting. Format: biochemical. As to conditions: FIG. 1. The source says:
For the selected NAI-008 (self-synthesized), the dimer formation of the target NAC1 protein by small molecule compounds was detected by immunoprecipitation technology and immunoblotting.

`CC(C)(C)c1ccc(OCC(=O)NCC(=O)c2ccc(OC(=O)c3ccc4c(c3)OCO4)cc2)cc1` [NAI-008]: the “toxic effects on cells, single application” value in the test on SKOV3 cells [1] (NAI-008 alone, SKOV3, FIGS. 2A and 2B) is on record as “did not cause significant toxic effects on cells”. Moreover, the “enhancement of cell growth inhibition by cisplatin and doxorubicin (MTT)” value in the test on SKOV3 cells [1] (NAI-008 at final concentration 20 uM combined with cisplatin or doxorubicin (0-40 μM), SKOV3, 48 hours, FIG. 2A) is “significantly enhances the inhibition of cell growth and proliferation by cisplatin and doxorubicin”. Further, the “enhancement of inhibitory effect of cisplatin on proliferation of SKOV3 (MTT screening)” value with SKOV3 cells [1] (second-round screening, combination with cisplatin, SKOV3) is “strongly enhances the inhibitory effect of cisplatin on the proliferation of ovarian cancer cell line SKOV3”. For the same compound, the “expression of apoptotic proteins (cleaved PARP) versus cisplatin or doxorubicin alone” value in the test on SKOV3 cells [2] (NAI-008 20 μM plus cisplatin or doxorubicin 20 μM, SKOV3, 48 hours, FIG. 2C) is given as “significantly higher”. For the same compound, the “apoptosis, compound alone” value with SKOV3 cells [2] (NAI-008 alone, SKOV3) is “did not cause significant apoptosis”. In addition, in the test with SKOV3 cells [3], the “enhancement of cell proliferation inhibition by cisplatin and doxorubicin (colony formation)” value was “significantly enhances the inhibition of cell growth and proliferation by cisplatin and doxorubicin”. The “formation of NAC1 protein dimer” value on NAC1 protein dimer is “inhibits the formation of NAC1 protein dimer”.
